Assay results reported in PubChem BioAssay (NCI).
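Cultured in 96-well plates, cells were exposed to test compound for 48 hours across five concentrations. GI50: concentration for 50% inhibition of growth. At the TGI there is no net growth.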

Legend:
Assay in all cases: inhibition of tumour cell growth, NCI panel, 48 h
COLO 205 colon = test system: COLO 205 colon
786-0 renal = test system: 786-0 renal
K-562 leukemia = test system: K-562 leukemia
MCF7 breast = test system: MCF7 breast
MALME-3M melanoma = test system: MALME-3M melanoma
NCI/ADR-RES ovarian = test system: NCI/ADR-RES ovarian
UACC-257 melanoma = test system: UACC-257 melanoma
HS 578T breast = test system: HS 578T breast
IGROV1 ovarian = test system: IGROV1 ovarian
NCI-H226 lung = test system: NCI-H226 lung
OVCAR-5 ovarian = test system: OVCAR-5 ovarian
NCI-H522 lung = test system: NCI-H522 lung
UACC-62 melanoma = test system: UACC-62 melanoma
OVCAR-8 ovarian = test system: OVCAR-8 ovarian
HL-60(TB) leukemia = test system: HL-60(TB) leukemia
TK-10 renal = test system: TK-10 renal
A498 renal = test system: A498 renal
RPMI-8226 leukemia = test system: RPMI-8226 leukemia
SN12C renal = test system: SN12C renal
A549 NSCLC = test system: A549 NSCLC
SF-539 CNS = test system: SF-539 CNS
SNB-19 CNS = test system: SNB-19 CNS
M14 melanoma = test system: M14 melanoma
NCI-H23 lung = test system: NCI-H23 lung
DU-145 prostate = test system: DU-145 prostate
HOP-62 NSCLC = test system: HOP-62 NSCLC
HOP-92 NSCLC = test system: HOP-92 NSCLC
SK-OV-3 ovarian = test system: SK-OV-3 ovarian
SK-MEL-2 melanoma = test system: SK-MEL-2 melanoma
CAKI-1 renal = test system: CAKI-1 renal

`Cc1ccc(-c2cc(C(=O)N=Nc3c(O)[nH]c4ccccc34)c3ccccc3n2)cc1` was tested. Which TGI (COLO 205 colon) did it give?
Its TGI is 37.9 µM.

What about the GI50 (786-0 renal) of the same compound?
Its GI50 is 2.87 µM.

What about the TGI (786-0 renal) of the same compound?
The TGI was 9.8 µM.

What about the GI50 (K-562 leukemia) of the same compound?
The GI50 was 3.19 µM.

What about the TGI (K-562 leukemia) of the same compound?
Its TGI is greater than 100 µM.

What about the GI50 (MCF7 breast) of the same compound?
Its GI50 is 4.39 µM.

And the TGI (MCF7 breast)?
The TGI was 33.4 µM.

And the GI50 (MALME-3M melanoma)?
The GI50 was 6.38 µM.

And the TGI (MALME-3M melanoma)?
Its TGI is 21.1 µM.

And the GI50 (NCI/ADR-RES ovarian)?
Its GI50 is 2.24 µM.

And the TGI (NCI/ADR-RES ovarian)?
Its TGI is 6.11 µM.

And the GI50 (UACC-257 melanoma)?
Its GI50 is 14.3 µM.

What about the TGI (UACC-257 melanoma) of the same compound?
The TGI was 32.2 µM.

And the GI50 (HS 578T breast)?
Its GI50 is 4.84 µM.

What about the TGI (HS 578T breast) of the same compound?
Its TGI is 88.9 µM.

And the GI50 (IGROV1 ovarian)?
The GI50 was 5.89 µM.

And the TGI (IGROV1 ovarian)?
The TGI was 23.1 µM.

What about the GI50 (NCI-H226 lung) of the same compound?
Its GI50 is 10.6 µM.

What about the TGI (NCI-H226 lung) of the same compound?
Its TGI is 28.6 µM.

What about the GI50 (OVCAR-5 ovarian) of the same compound?
The GI50 was 8.67 µM.

What about the TGI (OVCAR-5 ovarian) of the same compound?
The TGI was 26.7 µM.

And the GI50 (NCI-H522 lung)?
Its GI50 is 9.85 µM.

And the TGI (NCI-H522 lung)?
Its TGI is 25.6 µM.

What about the GI50 (UACC-62 melanoma) of the same compound?
The GI50 was 12.7 µM.

What about the TGI (UACC-62 melanoma) of the same compound?
The TGI was 32.1 µM.

What about the GI50 (OVCAR-8 ovarian) of the same compound?
The GI50 was 2.84 µM.

And the TGI (OVCAR-8 ovarian)?
The TGI was 9.15 µM.

What about the GI50 (HL-60(TB) leukemia) of the same compound?
The GI50 was 6.54 µM.

And the TGI (HL-60(TB) leukemia)?
Its TGI is 43.9 µM.

What about the GI50 (TK-10 renal) of the same compound?
Its GI50 is 20.6 µM.

What about the TGI (TK-10 renal) of the same compound?
Its TGI is 40.9 µM.

And the GI50 (A498 renal)?
Its GI50 is 19.3 µM.

What about the TGI (A498 renal) of the same compound?
Its TGI is 39.8 µM.

And the GI50 (RPMI-8226 leukemia)?
Its GI50 is 5.34 µM.

What about the TGI (RPMI-8226 leukemia) of the same compound?
The TGI was greater than 100 µM.

What about the GI50 (SN12C renal) of the same compound?
The GI50 was 3.15 µM.

What about the TGI (SN12C renal) of the same compound?
The TGI was 14.5 µM.

What about the GI50 (A549 NSCLC) of the same compound?
Its GI50 is 3.99 µM.

What about the TGI (A549 NSCLC) of the same compound?
The TGI was 22 µM.

And the GI50 (SF-539 CNS)?
Its GI50 is 3.27 µM.

And the TGI (SF-539 CNS)?
Its TGI is 11.3 µM.

What about the GI50 (SNB-19 CNS) of the same compound?
The GI50 was 10.6 µM.

What about the TGI (SNB-19 CNS) of the same compound?
Its TGI is 48.5 µM.

And the GI50 (M14 melanoma)?
Its GI50 is 7.76 µM.

And the TGI (M14 melanoma)?
The TGI was 27.8 µM.

And the GI50 (NCI-H23 lung)?
The GI50 was 4.67 µM.

What about the TGI (NCI-H23 lung) of the same compound?
The TGI was 26.1 µM.

What about the GI50 (DU-145 prostate) of the same compound?
The GI50 was 5.48 µM.

And the TGI (DU-145 prostate)?
The TGI was 37.6 µM.

And the GI50 (HOP-62 NSCLC)?
Its GI50 is 13.5 µM.

What about the TGI (HOP-62 NSCLC) of the same compound?
The TGI was 29.1 µM.

And the GI50 (HOP-92 NSCLC)?
The GI50 was 11.2 µM.

And the TGI (HOP-92 NSCLC)?
Its TGI is 36.4 µM.

And the GI50 (SK-OV-3 ovarian)?
Its GI50 is 18.1 µM.

What about the TGI (SK-OV-3 ovarian) of the same compound?
The TGI was 36.4 µM.

What about the GI50 (SK-MEL-2 melanoma) of the same compound?
The GI50 was 23.9 µM.

What about the TGI (SK-MEL-2 melanoma) of the same compound?
The TGI was 60.4 µM.

And the GI50 (CAKI-1 renal)?
Its GI50 is 4.56 µM.

And the TGI (CAKI-1 renal)?
Its TGI is 21.5 µM.
